Like-named read-outs stand apart in the source and are kept apart here.
What was measured:
[1] = stability test of brivaracetam solutions at different pH; assay type: physicochemical
Method: Solutions at different pH are prepared (natural pH (not buffered) and pH 4.5, 5.0, 5.5, 6.0. The pH is controlled by means of an adequate buffer in order to obtain the wished pH (in the example by 50 mM citrate).
(§1) The solution is dispensed in 1.5 ml sealed glass vials.
(§2) A stability test is performed at 25° C., 40° C., 60° C. and 80° C.
The pH of the various solutions is measured at the beginning of the test and after 2 weeks, 4 weeks, and 10 weeks. The amounts of degradation products in the brivaracetam solutions are dosed in the various solutions.

[2] = molecular target: T1, Levetiracetam Binding Site (LBS) (Rattus norvegicus, UniProt Q02563); assay: LBS binding assay; parameters: species or system Sprague-Dawley rats
T1 construct: from tissue; host or cells: rat cerebral cortex crude membranes (male Sprague-Dawley)
Method: [LBS stands for Levetiracetam Binding Site cf. M. Noyer et al., Eur. J. Pharmacol., 286 (1995) 137-146.]
The inhibition constant (Ki) of a compound is determined in competitive binding experiments by measuring the binding of a single concentration of a radioactive ligand at equilibrium with various concentrations of the unlabeled test substance. The concentration of the test substance inhibiting 50% of the specific binding of the radioligand is called the IC50. The equilibrium dissociation constant Ki is proportional to the IC50 and is calculated using the equation of Cheng and Prusoff (Cheng Y. et al., Biochem. Pharmacol. […], 22, 3099-3108).
The concentration range usually encompasses 6 log units with variable steps (0.3 to 0.5 log). Assays are performed in mono- or duplicate, each Ki determination is performed on two different samples of test substance. […]
Membranes (150-200 μg of protein/assay) are incubated at 4° C. for 120 min in 0.5 ml of a 50 mmol/l Tris-HCl buffer (pH 7.4) containing 2 mmol/l MgCl2, 1 to 2 10^−9 mol/l of [^3H]-2-[4-(3-azidophenyl)-2-oxo-1-pyrrolidinyl]butanamide and increasing concentrations of the test substance. […] The radioactivity trapped onto the filters is counted by liquid scintillation in a β-counter (Tri-Carb 1900 or TopCount 9206, Camberra Packard, Belgium, or any other equivalent counter). […]

[3] = bioavailability and safety of an intravenous formulation of brivaracetam; assay type: in vivo, healthy subjects
Method: A first step of the study done in a 3-way crossover in 24 healthy subjects (12 females, 12 males) compares the single-dose bioavailability of brivaracetam 10 mg oral tablets versus brivaracetam 10 mg administered as a 15 minute intravenous infusion, and as an IV bolus. In a second step, a single-dose escalation study (25 mg, 50 mg, 100 mg and 150 mg) is performed in 4 consecutive groups of 6 subjects (3 females, 3 males) to gain information and as a fast IV bolus, to assess the pharmacokinetics of brivaracetam at these dosing regimens and to explore dose proportionality.

[4] = system: audiogenic seizures in sound-susceptible mice; assay: animal model of sound-susceptible mice; assay type: in vivo; conditions: Mus musculus, ip; intraperitoneally 60 minutes before induction of audiogenic seizures; dose producing 50% protection
Excerpt: The objective of this test is to evaluate the anticonvulsant potency of a compound in sound-susceptible mice, a genetic animal model with reflex seizures. In this model of primary generalised epilepsy, seizures are evoked without electrical or chemical stimulation and the seizure types are, at least in part, similar in their clinical phenomenology to seizures occurring in man (Löscher W. 85 Schmidt D., Epilepsy Res. (1998), 2, 145-181; Buchhalter J. R., Epilepsia (1993), 34, S31-S41).
Male or female genetically sound-sensitive mice (14-28 g; N=10), derived from a DBA strain originally selected by Dr. Lehmann of the Laboratory of Acoustic Physiology (Paris) and bred in the UCB Pharma Sector husbandry unit since 1978, are used. The experimental design consisted of several groups, one group receiving the vehicle control and the other groups different doses of the test-compound. The compounds are administered intraperitoneally 60 minutes before the induction of audiogenic seizures.
For testing, the animals are placed in small cages, one mouse per cage, in a sound-attenuated chamber. […] During this interval, the mice are observed and the presence of the 3 phases of the seizure activity namely wild running, clonic and tonic convulsions, is recorded. The proportion of mice protected against wild running, clonic and tonic convulsions, respectively, is calculated. […]

[5] = stability test of seletracetam solutions at different pH; assay type: physicochemical
Method: Solutions at different pH are prepared (natural pH (not buffered) and pH 4.5, 5.0, 5.5, 6.0. The pH is controlled by means of an adequate buffer in order to obtain the wished pH (in the example: 50 mM acetate).
as §1, §2
The pH of the various solutions is measured at the beginning of the test and after 2 weeks, 4 weeks, and 10 weeks. The amounts of degradation products in the seletracetam solutions are dosed in the various solutions.

[6] = solution having a pH range of 5.0 and 6.0
[7] = solution in the range of pH of 4.5 and 6.5
[8] = 10 mg IV infusion or IV bolus versus 10 mg oral tablet, fully contained within the bioequivalence range

T1 sequence (Q02563 whole entry): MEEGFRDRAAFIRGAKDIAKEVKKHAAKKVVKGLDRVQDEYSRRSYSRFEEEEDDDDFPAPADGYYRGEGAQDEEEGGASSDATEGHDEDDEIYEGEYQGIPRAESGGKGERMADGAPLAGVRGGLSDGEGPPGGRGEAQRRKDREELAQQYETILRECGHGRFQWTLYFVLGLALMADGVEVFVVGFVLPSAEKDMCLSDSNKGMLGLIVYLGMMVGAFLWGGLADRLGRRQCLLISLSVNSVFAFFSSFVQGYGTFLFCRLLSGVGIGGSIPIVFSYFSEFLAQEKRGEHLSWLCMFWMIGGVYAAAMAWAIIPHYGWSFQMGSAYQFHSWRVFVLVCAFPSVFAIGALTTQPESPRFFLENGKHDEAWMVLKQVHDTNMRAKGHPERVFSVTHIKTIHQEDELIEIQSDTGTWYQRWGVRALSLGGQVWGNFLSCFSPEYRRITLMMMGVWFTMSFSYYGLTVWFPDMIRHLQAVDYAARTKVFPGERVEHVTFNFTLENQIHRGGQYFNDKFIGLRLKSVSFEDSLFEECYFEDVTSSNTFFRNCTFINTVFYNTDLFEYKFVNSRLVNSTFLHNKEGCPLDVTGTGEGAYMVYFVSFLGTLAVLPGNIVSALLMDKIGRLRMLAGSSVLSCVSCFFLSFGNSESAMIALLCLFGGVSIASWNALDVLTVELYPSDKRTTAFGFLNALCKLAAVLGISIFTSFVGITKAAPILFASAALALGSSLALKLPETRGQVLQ

In the case of `CCC[C@@H]1CC(=O)N([C@@H](CC)C(N)=O)C1` [Brivaracetam, (2S)-2-[(4R)-2-oxo-4-propyl-pyrrolidin-1-yl] butanamide], the degradation rate [1, 6] is reported as “lowest”, the stability of solution [1, 7] is reported as “stable” and the Ki [2] is reported as at most 1000 nM. For the same molecule, the “90% confidence intervals of geometric ratios of AUC” value [3, 8] was 80-125%, the “90% confidence intervals of geometric ratios of Cmax” value [3, 8] was 80-125% and the “bioequivalence to single dose of brivaracetam 10 mg oral tablet” value ([3]; 10 mg via 15-minute IV infusion, healthy subjects) was “bioequivalent”. The “bioequivalence to single dose of brivaracetam 10 mg oral tablet” value ([3]; 10 mg via IV bolus, healthy subjects) was “bioequivalent”, the “pharmacokinetic parameters after IV infusion and IV bolus” value ([3]; IV infusion compared with IV bolus) was “similar” and the “extent of exposure versus dose” value ([3]; dose range 25-150 mg) was “proportional to the administered dose”. For the same molecule, the safety and tolerability ([3]; from 25 mg to 150 mg as IV infusion or IV bolus, healthy subjects) was “safe and well tolerated” and the ED50 [4] was at most 100 µmol/kg.

In the case of `CC[C@@H](C(N)=O)N1C[C@H](C=C(F)F)CC1=O` [Seletracetam, (2S)-2-[(4S)-4-(2,2-difluorovinyl)-2-oxo-pyrrolidin-1-yl]butanamide], the degradation rate [5, 6] is reported as “lowest”, the stability of solution [5, 7] is reported as “stable” and the Ki ([2]; rat cerebral cortex membranes, [3H]-2-[4-(3-azidophenyl)-2-oxo-1-pyrrolidinyl]butanamide radioligand, read-out: pKi (converted)) is reported as at most 1000 nM. For the same molecule, the ED50 [4] was at most 100 µmol/kg.

From patent publication US20110021786A1, “Pharmaceutical Solutions, Process of Preparation and Therapeutic Uses” (UCB PHARMA, S.A., priority 2008, published 2011)
